Where two headings read alike, the source gives them in different places.

Data set [1] is described as follows: Metabolic stability of liver microsomes in vitro (human). The conditions noted are these: read-out: Human T1/2/min. The format is in vitro ADME. Here is the method:
Microsomes were taken out from the −80° C. refrigerator, rapidly melted in a 37° C. water bath and placed on ice until ready to use. The test article was diluted with DMSO to prepare a 10 mM stock solution, and then diluted with acetonitrile to a 0.5 mM secondary stock solution. The microsomes were diluted to 0.75 mg/ml using Buffer C; the secondary stock solution was then added to a final concentration of 1.5 μM of compound as working solution, based on n=2, 5 time points, 350 μL of each compound was prepared and placed on ice prior to use. NADPH was diluted with Buffer C to a working solution of 6 mM for the starter solution. An acetonitrile solution containing an internal standard was prepared as the precipitant, and Verapamil-HCl was chosen as the internal standard at a concentration of 4 ng/ml.
A round-bottom well plate was taken, noted as the reaction plate, and the prepared working solution for each compound was dispensed into the well plate according to the number of replicates and time points (0 h samples are also added to the reaction plate), 30 μL/well; the plate was incubated at 37° C. for 10 min. A separate plate with pointed bottom wells, noted as a precipitation plate, was added with 135 μL precipitant per well; 0 h samples were transferred to the plate after 10 min incubation and 15 μL of starter solution was added; the plate was placed on ice before centrifugation.
The diluted starter solution was added in sufficient quantity to the dispensing plate to facilitate the multichannel pipette aspiration operation.
The reaction was carried out on a warm incubation shaker and 15 μL of starter solution/sample is added to the plate using a multichannel pipette. The reaction was mixed with a slight shake to initiate the reaction, which was accurately timed and recorded using a timer;
After the reaction time had elapsed, all the solution in the plate was aspirated using the multichannel pipette and added to the precipitation plate to terminate the reaction at that point in time. After all reactions had been terminated, the plates were shaken for ten minutes on a plate shaker at 600 rpm to precipitate the protein. The plate was centrifuged at 4° C. for 15 minutes at maximum rpm. 80 μL of supernatant was taken, 320 μL of pure water was added and mixed for LC-MS analysis.

A further data set concerns H1299 cells. Briefly: Anti-proliferative effect by Cell Titer-Glo, H1299. The conditions noted are these: Homo sapiens, NCI-H1299, 72 h, read-out: IC50 measured value H1299. The format is cell-based. In outline:
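Cells exposed to 9-point serial dilutions (duplicates, 0.2% DMSO final) for 3 days at 37 °C, 5% CO2. Viability by CellTiter-Glo luminescence; inhibition normalised to untreated-cell and medium controls, IC50 from variable-slope log(inhibitor)–response fit.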
On the technique in general: ATP-based viability assays read luminescence as a measure of living cells.

The next data set concerns the target CYP3A4 (Homo sapiens, UniProt P08684). Briefly: Inhibition of cytochrome P450, CYP3A4. The data set is classed as in vitro ADME. The conditions noted are these: CYP3A4 enzyme, pH 7.4, probe BOMCC, read-out: CYP inhibition/% 3A4; for inhibition at 30 min, 1 µM: compound concentration 1 μM; for inhibition at 30 min, 10 µM: compound concentration 10 μM. As to the method: (§1) Enzymatic experiments were performed to quantify the inhibition of CYP450 enzyme activity of each isoform of CYP450 by small molecule inhibitors through fluorescence generated by the oxidation of the substrate by cytochrome P450. […] The Solution B composition used for the experiment was: 40 U/mL G6PDH (Sigma-aldrich, Cat #G6378). The substrate mix was 0.05× Solution A, 0.01× Solution B, 50 mM Potassium Phosphate, 0.01 mM BOMCC/0.01 mM EOMCC/0.001 mM DBOMF. […] The data were analyzed and processed using GraphPad Prism 6 software to obtain IC50 values.

The target of a further data set is CYP2C19 (Homo sapiens, UniProt P33261). Put plainly: Inhibition of cytochrome P450, CYP2C19. The conditions noted are these: CYP2C19 enzyme, pH 7.4, probe EOMCC, read-out: CYP inhibition/% 2C19; for inhibition at 30 min, 1 µM: compound concentration 1 μM; for inhibition at 30 min, 10 µM: compound concentration 10 μM. The data set is classed as in vitro ADME. Here is the method:
as §1

Setting [2] is: H1299 cells, 3 days, Cell Titer-Glo.

CYP3A4, sequence (P08684 whole entry, canonical isoform): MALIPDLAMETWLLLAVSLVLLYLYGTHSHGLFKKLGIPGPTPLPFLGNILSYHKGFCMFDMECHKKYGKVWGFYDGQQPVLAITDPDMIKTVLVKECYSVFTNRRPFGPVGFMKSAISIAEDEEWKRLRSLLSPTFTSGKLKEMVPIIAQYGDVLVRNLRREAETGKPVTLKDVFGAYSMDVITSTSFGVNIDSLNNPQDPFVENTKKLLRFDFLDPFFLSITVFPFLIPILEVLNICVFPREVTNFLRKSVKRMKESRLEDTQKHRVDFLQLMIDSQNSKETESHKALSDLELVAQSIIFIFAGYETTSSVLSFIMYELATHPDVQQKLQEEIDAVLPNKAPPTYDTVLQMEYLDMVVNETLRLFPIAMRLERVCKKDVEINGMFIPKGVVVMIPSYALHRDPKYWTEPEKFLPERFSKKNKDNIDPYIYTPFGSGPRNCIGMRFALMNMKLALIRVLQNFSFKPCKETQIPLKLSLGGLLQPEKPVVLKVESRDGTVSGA
CYP2C19, sequence (P33261 whole entry): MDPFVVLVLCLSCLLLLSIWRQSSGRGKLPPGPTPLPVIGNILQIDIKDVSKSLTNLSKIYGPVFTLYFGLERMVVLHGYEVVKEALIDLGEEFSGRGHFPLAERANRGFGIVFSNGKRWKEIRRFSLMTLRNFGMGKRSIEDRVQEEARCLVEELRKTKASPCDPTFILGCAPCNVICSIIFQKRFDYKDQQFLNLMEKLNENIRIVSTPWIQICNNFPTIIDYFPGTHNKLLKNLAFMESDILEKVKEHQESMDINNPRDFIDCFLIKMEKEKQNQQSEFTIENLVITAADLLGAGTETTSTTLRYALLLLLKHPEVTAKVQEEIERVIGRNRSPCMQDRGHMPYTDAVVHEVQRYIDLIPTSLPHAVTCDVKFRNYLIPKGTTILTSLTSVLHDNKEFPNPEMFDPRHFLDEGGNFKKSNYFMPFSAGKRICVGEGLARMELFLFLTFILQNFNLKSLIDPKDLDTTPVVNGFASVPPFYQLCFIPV

One may read the IC50 as the point on the concentration scale where inhibition reaches its midpoint. `C=CCn1c(=O)c2cnc(Nc3ccc(N4CCN(C)CC4)cc3)nc2n1-c1cccc(C(C)(C)O)n1` [AZD-1775, reference compound]: the half-life at 1 µM in data set [1] was above 2 h. In addition, in the data set on H1299 cells (setting [2]), the half-inhibitory concentration (IC50) was in the range of 0.1 to 1 µM.
Consider `CN1CCN(c2ccc(Nc3ncc4cnn(-c5cccc(N=S(C)(C)=O)n5)c4n3)cc2)CC1` [Compound 1], for which the half-life at 1 µM in data set [1] is above 2 h. Also, the inhibition at 30 min, 1 µM amounted to 8.1% at CYP3A4 and 3.3% on CYP2C19. Further, the inhibition at 30 min, 10 µM at CYP3A4 was determined as 10.9%; on CYP2C19, 10.7%. The IC50 in the data set with H1299 cells lay within 1 to 5 µM.
Regarding `CN1CCN(c2ccc(Nc3ncc4cnn(-c5cccc(C(C)(C)O)n5)c4n3)cc2)CC1` [Compound 2], the half-life at 1 µM in data set [1] was above 2 h. At CYP3A4, the inhibition at 30 min, 1 µM amounted to 0% and the inhibition at 30 min, 10 µM was -10.6%. In addition, at CYP2C19, the inhibition at 30 min, 1 µM is 3.8% and the inhibition at 30 min, 10 µM was 9.8%. In addition, the IC50 in the data set on H1299 cells (setting [2]) was 1 to 5 µM.
Turning to `CS(C)(=O)=Nc1cccc(-n2ncc3cnc(Nc4ccc(N5CCOCC5)cc4)nc32)n1` [Compound 6], on CYP3A4, the inhibition at 30 min, 1 µM is -26.1% and the inhibition at 30 min, 10 µM is -25.7%. At CYP2C19, the inhibition at 30 min, 1 µM was -16.5% and the inhibition at 30 min, 10 µM is -8.3%. Also, the IC50 in the data set with H1299 cells (setting [2]) fell in the range of 0.1 to 1 µM.
As to `Cc1cc(Nc2ncc3cnn(-c4cccc(N=S(C)(C)=O)n4)c3n2)ccc1N1CCC(N(C)C)CC1` [Compound 14], the half-life at 1 µM in data set [1] is above 2 h. Moreover, the IC50 in the data set with H1299 cells (setting [2]) was 0.1 to 1 µM.
For the compound `Cc1cc(Nc2ncc3cnn(-c4cccc(N=S(C)(C)=O)n4)c3n2)ccc1N1CCN(C)CC1` [Compound 16], the half-life at 1 µM in data set [1] is above 2 h. For the same compound, the IC50 in the data set with H1299 cells (setting [2]) was in the range of 0.1 to 1 µM.

The values above are taken from US12649748B2, “Wee1 inhibitor and use thereof” (JIANGSU TASLY DIYI PHARMACEUTICAL CO., LTD., priority 2021, dated 2026).
